The record followed here is patent publication US20050203013A1, “Methods for inhibiting vascular permeability” (priority 2002, published 2005).

Test [1] has as its system skin vessel permeability. The test is described as follows: Miles vascular permeability assay (Example 3). Type of test: in vivo, SCID mice. On the procedure: SCID mice were injected subcutaneously (s.c.) with TNP-470 or HPMA copolymer-TNP-470 (30 mg/Kg TNP-equiv.) for three days, with Y27632 (50 nM s.c.) for 11 days, with angiostatin (200 mg/kg/day s.c.) for five days, or with saline (250 μl s.c.) for 5 days (n=12) prior to performing the Miles assay ([…] et al., 1996; Miles and Miles, 1952; Streit et al., 2000). Briefly, Evan's blue dye (100 μl of a 1% solution in 0.9% NaCl) was injected intravenously (i.v.) into mice. After 10 minutes, 50 μl of human VEGF165 (1 ng/μl), PAF (100 μM), CNF-1 (100 ng), histamine (1.2 μg/ml) or PBS (50 ul) were injected intradermally into the pre-shaved back skin. After 20 minutes, the animals were euthanized and an area of skin that included the blue spot resulting from leakage of the dye was removed. Evan's blue dye was extracted from the skin by incubation with formamide for 5 days at room temperature, and the absorbance of extracted dye was measured at 620 nm using a spectrophotometer. The unpaired Student t test was used for statistical analysis.

Test [2] has as its system VEGF induced vessel permeability. Description: Miles assay (Example 2), VEGF165 challenge. It is filed as in vivo, mice. On the procedure:
One of the problems with angiogenesis-dependent diseases is increased vessel permeability (due to high levels of VPF) which results in edema and loss of proteins. A decrease in vessel permeability is beneficial in those diseases. […] Briefly, a dye, Evans Blue (1% in PBS), was injected i.v. to anesthesized mice. After 10 min, human recombinant VEGF165 (50 ng/50 μl) was injected intradermally into the back skin. Leakage of protein-bound dye was detected as blue spots on the underside of the back skin surrounding the injection site. After 20 min mice were euthanized. Then, the skin was excised, left in formamide for 5 days to be extracted and the solution read at 620 nm. Putative angiogenesis inhibitors such as free and conjugated TNP-470 were injected daily 3 days (30 mg/kg/day) prior to the VEGF challenge. The same was repeated on tumor-bearing mice to evaluate the effect of angiogenesis inhibitors on tumor vessel permeability.

Test [3] deals with U87 glioblastoma tumor blood vessel permeability. Description: Miles assay on tumor-bearing mice (Example 3), U87. Further details: species or system SCID mice. The conditions noted are these: mouse, in vivo. How it is done:
Female SCID mice ( 8 weeks, 20 g) were inoculated s.c. with 5×10^6 viable U87 glioblastoma cells or viable A2058 human melanoma cells or BXPC3 pancreas adenocarcinoma cells. Female nu/nu mice were inoculated with MCF-7 or MDA-MB-231 breast carcinoma cells in the mammary fat pad. C57B1/6J were inoculated with LLC. […] blue dye was then injected i.v. and extravasation of dye assessed as above. Also, blood was withdrawn to measure VPF/VEGF levels in plasma and in tumors (n=5 from each group). Tumors (n=5 per group) were dissected, weighed and cut in half. Half of the tumor was placed in formalin and half was analyzed for VPF/VEGF protein by ELISA (see below). Formalin fixed tumors were processed for sectioning and staining with H & E, CD31, smooth muscle actin (SMA) and proliferating cell nuclear antigen (PCNA) according to the manufacturers' instructions.

Test [4] relates to skin capillary permeability. The test is described as follows: Evans Blue skin permeability assay, intradermal PAF, endostatin-treated mice. Type of test: in vivo. The conditions noted are these: Nude mice. How it is done:
(§1) The antiangiogenic factor (endostatin) was injected intraperitoneally to FVB/NJ mice for 4 days. Immediately after the last injection, mice were anasthesized and received intravenous injection of 100 μl Evans Blue dye (1% in PBS). Subsequently, different amounts of VEGF165, VEGF121 or saline were injected intradermaly. After 20 minutes, mice were sacrificed and skin flap from the back was removed and photographed. Skin samples from the injection sites were excised and incubated in formamide for 5 days in order to extract the dye and O.D. was measured at 620 nm. […] Quantitative analysis of Evans Blue dye extravasation (FIG. 1) confirmed the lower skin capillary permeability of the antiangiogenic factor-treated mice and indicated the weak permeability-inducing effect of VEGF in these mice.
In order to test if the effects of the antiangiogenic factor (endostatin) on vascular permeability is VEGF-specific, we have tested the effects of intradermal injection of platelet-activating factor (PAF) in Nude mice that were previously injected with the antiangiogenic factor and in control mice, as described above. […] Quantitative analysis of Evans Blue dye extravasation (FIG. 2) confirmed the lower skin capillary permeability of the antiangiogenic factor-treated mice compared with control and the lack of PAF-induced hyperpermeability in these mice. […]

In test [5] the test system is Bovine capillary endothelial cells (BCE). Description: Immunostaining of tight junction proteins in BCE, endostatin. Type of test: cell-based. How it is done: Bovine capillary endothelial cells (BCE) were cultured in the presence of 0.2, 0.5 and 2 μg/ml human endostatin for three days. The cells were fixed and immunostained with anti-β-catenin, occludin, and ZO-1 antibodies (Zymed Laboratories, CA). The staining was developed using FITC-conjugated secondary antibodies and visualized under fluorescent microscopy. Immunostaining for β-catenin marked the cell borders and was more intense when two cells contacted each other. […] There was no difference in β-catenin staining between 0.5 and 2.0 μg/ml endostatin. […] Similar results were obtained with ZO-1 immunostaining. […] This is the first documentation of the effects of endostatin on tight junctions that may explain, in part, the mechanism of its antiangiogenic activities. Similar experiments were performed in which BCE were incubated in the presence and absence of 0.5 μg/ml endostatin for 3 days followed by stimulation with PAF for 20 minutes. The cells were fixed and immunostained with anti-α-catenin, occludin, and ZO-1 antibodies (Zymed Laboratories, CA), as described above.

The subject of test [6] is skin capillary permeability. Description: Evans Blue skin permeability assay, intradermal VEGF, endostatin-treated mice. It is filed as in vivo. The conditions noted are these: FVB/NJ mice, i.p. for 4 days. How it is done: as §1
For a further test, the system named is lung tissue. The test is described as follows: Swelling of lung tissue induced by micro-encapsulated VEGF-producing cells. It is filed as in vivo, Mice. The conditions noted are these: VEGF producing cells together with endostatin producing cells, 0.5x10^6 encapsulated cells of each. The source says: Dilation of the lung tissue may result in lung dysfunction and development of pulmonary hypertension. Mice injected with micro-encapsulated cells producing VEGF (approximately 0.5×10^6 cells per mouse) developed thickened lung parenchyma 5 days after injection. At a higher magnification we observed generation of several cell layers between the alveoli compared with one layer of cells in mice injected with micro-encapsulated control cells or with micro-encapsulated cells producing endostatin (Endost). […] Moreover, treatment with endostatin reduced the number of cell layers between the alveoli and the lungs of mice that were treated with endostatin appeared similar to control mice. Therefore, endostatin appears to block the swelling of lung tissue and may be used for treatment of pulmonary hypertension.

Test [7] has as its system skin vessel permeability. Description: Duration of exposure: Alzet pump endostatin, skin vessel permeability. It is filed as in vivo, mice (SCID). How it is done:
In order to test if continuous exposure to the antiangiogenic factor (endostatin) is required to repress blood vessel permeability, mice (SCID) were anesthetized and “Alzet” pumps loaded with the antiangiogenic factor or saline were implanted intraperitoneally. The pumps release 1 μl the antiangiogenic factor per hour. Skin vessel permeability using Evans Blue dye was performed as described above. Saline and the antiangiogenic factor treated mice were examined 2, 3 and 4 days after pump implantation, as described above (FIG. 3). […] In both groups, PAF injection induced higher vessel permeability than saline injection. […] However, in both groups PAF injection induced higher vessel permeability than saline injection. […] Since the tumor vessels are continuously permeabilized and plasma proteins contained within the tumor support its vascularization the anti-permeability effect of the antiangiogenic factor offers a possible mechanism for its anti-tumor activity.

The subject of test [8] is Bovine capillary endothelial cells (BCE). Description: In vitro diffusion of FITC-dextran through endothelial cell monolayer (Transwells). It is filed as cell-based. On the procedure: The effects of the antiangiogenic factor (endostatin) on skin vessel permeability in vivo were tested in an in vitro diffusion model designed to mimic blood vessel permeability. Bovine capillary endothelial cells (BCE) were seeded in collagen coated inserts of “Transwells” and grown to confluence. The antiangiogenic factor was added every 24 hours. Four days later the inserts were washed with BCE culture medium and the following tracers and permeability regulators were added to the inserts. Half of the inserts received 5 mg/ml FITC-labeled dextran 10 kDa and the other half received 5 mg/ml FITC-labeled dextran 70 kDa. In addition, some inserts received 50 ng/ml VEGF165 or 100 nM PAF. Control inserts received BCE culture medium with fluorescent tracers only. The fluorescence in the lower wells was measured after 10, 20, 30, 45 and 60 minutes by transferring the inserts into new wells.
In order to follow the kinetic of the diffusion process, the flow of the tracer was calculated as fluorescent counts per minute (FIGS. 5 and 6). […] In contrast, the flow in control cells was constant and was lower than that observed in PAF and VEGF165-treated cells.

Test [9] relates to histamine-induced local edema. Description: Histamine-induced wheal and flare test. It is filed as in vivo. The conditions noted are these: humans receiving the factor. How it is done: Antiangiogenic treatment has entered into clinical trials recently. Molecules that are tested in phase 1 and 2 clinical trials include endostatin, angiostatin, TNP-470, thalidomide, anti-VEGF antibodies, PTK787, SU-5416, SU-6668 and others. […] Mice that received endostatin for several days had lower diffusion of Evans blue from the skin capillaries in response to intradermal VEGF and PAF injection compared with normal mice. The existing test of histamine-induced wheal and flare in skin can be used in order to test bioactivity of endostatin and other antiangiogenic factors. Intradermal injection of histamine leads to the formation of local adema ([…]) due to blood vessel hyperpermiability. […] This test will serve as an early surrogate marker for the bioactivity of endostatin and other antiangiogenic factors and help to determine the treatment's efficiency in individual patients.

Turning to `O=C1CCC(N2C(=O)c3ccccc3C2=O)C(=O)N1` (stereo not shown) [Thalidomide], in the test with skin vessel permeability [1] (VPF/VEGF intradermal), the “effect on VPF/VEGF-induced vessel permeability” value was “no significant effect”. Also, in [2], the “effect on VEGF induced vessel permeability” value is given as “no effect”.
For the molecule `C[C@@H](N)[C@H]1CC[C@H](C(=O)Nc2ccncc2)CC1` [Y27632], in the test with skin vessel permeability [1] (CNF-1 intradermal), the “CNF-1-induced Evan's blue-albumin extravasation” value is “inhibited”. For the same molecule, the “effect on VPF/VEGF-induced vessel permeability” value in the test on skin vessel permeability [1] (VPF/VEGF intradermal) is “inhibited”.
For the molecule angiostatin, in the test with skin vessel permeability [1] (PAF intradermal), the “decrease of PAF-induced permeability” value was 37%. Also, the “inhibition of Evan's blue dye extravasation from VPF/VEGF injection sites” value with skin vessel permeability [1] (VPF/VEGF intradermal) came to 40%. Further, the “decrease of histamine-induced permeability” value in the test on skin vessel permeability [1] (histamine intradermal) turned out to be 51%. In test [3], the “Evan's blue extravasation into U87 glioblastomas” value is given as “did not inhibit”.
In the case of endostatin, in test [4], the PAF-induced vascular permeability entry is “repressed”. For the same molecule, the “cell boundary β-catenin staining” value in test [5] (0.2 μg/ml, three days) was “intensified”; in test [5] (0.5 μg/ml, three days), “further intensified”. Moreover, in [5] (0.5 μg/ml for 3 days, then PAF for 20 minutes), the “PAF reduction of staining intensity of anti-α-catenin, occludin and ZO-1” value is “not in endostatin-treated cells”. In addition, in test [5] (0.2-2.0 μg/ml, three days), the ZO-1 immunostaining entry was “Cells boundaries were only visible”. Besides, in [5] (0.5 and 2.0 μg/ml, three days), the occludin immunostaining result is on record as “cell boundaries were observed”. Also, in test [6] (intradermal VEGF165/VEGF121), the “VEGF-induced hyperpermeability (Evans Blue extravasation)” value is given as “minor induction of hyperpermeability”. The “Evans Blue dye leakage from skin capillaries” value in test [6] (vs control mice) is “overall lower dye leakage than the control”. Further, in the test with lung tissue, the “lung tissue appearance (cell layers, extracellular matrix)” value is “fewer cell layers and no accumulation of extracellular matrix”. Also, in the test with skin vessel permeability [7] (SCID mice, intraperitoneal Alzet pump), the “duration of treatment required to reduce skin vessel permeability” value is “at least 3 days”. Moreover, the “blood vessel permeability in response to PAF injection vs saline treated mice” value with skin vessel permeability [7] (day two after pump implantation) was “no significant difference”. Also, the “flow of the tracer (fluorescent counts per minute)” value in [8] (10 kDa and 70 kDa dextrans) is on record as “significant reduced flow”. For the same molecule, the “sum of fluorescent count over 60 minutes” value in test [8] (BCE monolayer pre-treated 4 days, FITC-dextran 10 kDa and 70 kDa, vs control, VEGF165- and PAF-treated cells) is “significantly lower fluorescent counts”. Besides, the “zone of edema after intradermal histamine” value in [9] is “reduced zone of edema”.
